Assay results: patent US9676760B2, “Fused heterocyclic compounds as ion channel modulators” (Gilead Sciences, Inc., priority 2011, dated 2017)

Legend:
Assay type in all cases: cell-based
[1] = biological target: T1, wild-type human cardiac sodium channel, hNav1.5 (Homo sapiens, UniProt Q14524); experiment: Late INa screening assay (QPatch whole cell patch clamp, HEK293)
Summary of the method: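 HEK293 stably expressing hNav1.5 without beta subunits, recorded at 23-25° C. Late current was induced by 10 μM tefluthrin. Cells were depolarized from −120 mV to −20 mV for 250 ms at 0.1 Hz. Compounds were tested at 1 μM in extracellular solution, with baseline taken in 0Na-ECF; output is percent block of late INa.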

[2] = biological target: T1, wild-type human cardiac sodium channel, hNav1.5; experiment: Peak INa screening assay (tonic and use-dependent block); settings: for inhibition at 1 µM: compound at 1 μM
Summary of the method: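 Whole-cell automated patch clamp (QPatch) at 23–25°C on HEK293 cells stably expressing hNav1.5 alpha subunit only, with CsF/CsCl pipette solution, pH 7.4. Compound at 1 μM in extracellular solution; bath Na+ could be cut to 20 mM with a nonpermeant cation. Tonic block measured at 0.1 Hz, use-dependent block at 3 Hz.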

[3] = biological target: hNav 1.8 sodium channel isoform (Homo sapiens, UniProt Q9Y5Y9); experiment: hNav1.8 sodium channel block
hNav 1.8 sodium channel isoform, sequence (Q9Y5Y9 whole entry, canonical isoform): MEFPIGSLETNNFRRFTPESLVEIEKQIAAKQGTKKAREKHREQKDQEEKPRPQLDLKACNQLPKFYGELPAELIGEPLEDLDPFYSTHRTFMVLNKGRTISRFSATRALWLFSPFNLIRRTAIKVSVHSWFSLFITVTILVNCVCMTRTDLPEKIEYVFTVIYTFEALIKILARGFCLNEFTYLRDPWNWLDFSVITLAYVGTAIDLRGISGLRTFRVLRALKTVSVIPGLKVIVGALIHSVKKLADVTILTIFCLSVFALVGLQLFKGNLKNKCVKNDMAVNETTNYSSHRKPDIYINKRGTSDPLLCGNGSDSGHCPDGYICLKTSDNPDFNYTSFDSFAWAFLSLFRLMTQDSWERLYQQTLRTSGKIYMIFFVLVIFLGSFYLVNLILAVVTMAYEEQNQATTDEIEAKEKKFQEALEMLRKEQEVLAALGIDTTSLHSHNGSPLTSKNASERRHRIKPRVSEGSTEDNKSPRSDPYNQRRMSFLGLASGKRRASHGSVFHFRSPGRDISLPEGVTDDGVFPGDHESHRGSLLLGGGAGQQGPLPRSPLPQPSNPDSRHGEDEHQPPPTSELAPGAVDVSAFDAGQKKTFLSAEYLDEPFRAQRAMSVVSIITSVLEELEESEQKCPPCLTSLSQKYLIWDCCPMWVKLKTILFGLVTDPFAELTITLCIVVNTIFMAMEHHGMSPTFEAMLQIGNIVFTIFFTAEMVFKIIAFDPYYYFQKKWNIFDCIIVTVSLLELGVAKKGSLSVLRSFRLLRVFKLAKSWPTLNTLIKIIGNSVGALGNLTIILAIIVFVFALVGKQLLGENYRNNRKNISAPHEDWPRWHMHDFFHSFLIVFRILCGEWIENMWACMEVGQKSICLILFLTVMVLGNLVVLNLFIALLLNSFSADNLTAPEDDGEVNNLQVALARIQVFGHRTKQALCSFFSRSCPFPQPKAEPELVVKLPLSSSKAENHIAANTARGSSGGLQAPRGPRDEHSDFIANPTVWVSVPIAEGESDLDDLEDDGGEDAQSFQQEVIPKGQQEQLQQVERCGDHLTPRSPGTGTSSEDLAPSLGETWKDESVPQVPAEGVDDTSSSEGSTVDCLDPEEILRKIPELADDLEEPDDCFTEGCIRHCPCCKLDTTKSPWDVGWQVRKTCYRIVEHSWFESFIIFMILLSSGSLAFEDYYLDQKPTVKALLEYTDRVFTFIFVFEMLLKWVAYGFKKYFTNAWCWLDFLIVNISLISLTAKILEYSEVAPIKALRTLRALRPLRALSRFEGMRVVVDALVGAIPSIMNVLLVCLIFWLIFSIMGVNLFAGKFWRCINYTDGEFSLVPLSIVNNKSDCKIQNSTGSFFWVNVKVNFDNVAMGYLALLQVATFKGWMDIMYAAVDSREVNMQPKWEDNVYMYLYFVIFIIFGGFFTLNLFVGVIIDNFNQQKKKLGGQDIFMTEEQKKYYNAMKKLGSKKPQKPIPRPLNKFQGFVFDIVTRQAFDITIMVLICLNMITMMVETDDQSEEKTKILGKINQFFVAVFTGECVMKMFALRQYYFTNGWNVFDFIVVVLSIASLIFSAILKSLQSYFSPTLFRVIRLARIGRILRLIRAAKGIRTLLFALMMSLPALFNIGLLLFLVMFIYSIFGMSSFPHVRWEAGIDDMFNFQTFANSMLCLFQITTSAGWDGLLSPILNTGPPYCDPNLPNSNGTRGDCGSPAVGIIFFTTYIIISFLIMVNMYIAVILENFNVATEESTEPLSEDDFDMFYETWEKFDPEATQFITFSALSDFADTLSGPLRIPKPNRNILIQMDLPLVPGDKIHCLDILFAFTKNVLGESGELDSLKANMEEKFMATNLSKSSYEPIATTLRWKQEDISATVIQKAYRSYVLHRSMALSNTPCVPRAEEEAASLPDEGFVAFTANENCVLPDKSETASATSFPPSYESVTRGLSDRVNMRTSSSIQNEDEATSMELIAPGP
From the text: Compounds of this disclosure that block cardiac late INa may also mediate UDB of other Na^+ channel isoforms including the major Na^+ channel isoforms in peripheral nervous system pain fibers, NaV1.7 and 1.8. Compounds of this disclosure that block these channels may also be useful to decrease neuropathic pain.
The inhibition of either hNav 1.7 and hNav 1.8 isoforms or the inhibition of both channels when stimulated at these frequencies support the use of compounds of this disclosure to decrease neuropathic pain.

[4] = HEK293, % Inhibition at 1 uM, read-out: Late INa*
[5] = HEK293, percent block of late INa, compound at 1 μM, 10 μM Tefluthrin, read-out: Late INa 1 μM
[6] = tonic block of peak INa, 0.1 Hz, read-out: Peak TB 1 μM
[7] = use-dependent block of peak INa, 3 Hz, read-out: Peak UDB 1 μM

T1 sequence (Q14524 whole entry): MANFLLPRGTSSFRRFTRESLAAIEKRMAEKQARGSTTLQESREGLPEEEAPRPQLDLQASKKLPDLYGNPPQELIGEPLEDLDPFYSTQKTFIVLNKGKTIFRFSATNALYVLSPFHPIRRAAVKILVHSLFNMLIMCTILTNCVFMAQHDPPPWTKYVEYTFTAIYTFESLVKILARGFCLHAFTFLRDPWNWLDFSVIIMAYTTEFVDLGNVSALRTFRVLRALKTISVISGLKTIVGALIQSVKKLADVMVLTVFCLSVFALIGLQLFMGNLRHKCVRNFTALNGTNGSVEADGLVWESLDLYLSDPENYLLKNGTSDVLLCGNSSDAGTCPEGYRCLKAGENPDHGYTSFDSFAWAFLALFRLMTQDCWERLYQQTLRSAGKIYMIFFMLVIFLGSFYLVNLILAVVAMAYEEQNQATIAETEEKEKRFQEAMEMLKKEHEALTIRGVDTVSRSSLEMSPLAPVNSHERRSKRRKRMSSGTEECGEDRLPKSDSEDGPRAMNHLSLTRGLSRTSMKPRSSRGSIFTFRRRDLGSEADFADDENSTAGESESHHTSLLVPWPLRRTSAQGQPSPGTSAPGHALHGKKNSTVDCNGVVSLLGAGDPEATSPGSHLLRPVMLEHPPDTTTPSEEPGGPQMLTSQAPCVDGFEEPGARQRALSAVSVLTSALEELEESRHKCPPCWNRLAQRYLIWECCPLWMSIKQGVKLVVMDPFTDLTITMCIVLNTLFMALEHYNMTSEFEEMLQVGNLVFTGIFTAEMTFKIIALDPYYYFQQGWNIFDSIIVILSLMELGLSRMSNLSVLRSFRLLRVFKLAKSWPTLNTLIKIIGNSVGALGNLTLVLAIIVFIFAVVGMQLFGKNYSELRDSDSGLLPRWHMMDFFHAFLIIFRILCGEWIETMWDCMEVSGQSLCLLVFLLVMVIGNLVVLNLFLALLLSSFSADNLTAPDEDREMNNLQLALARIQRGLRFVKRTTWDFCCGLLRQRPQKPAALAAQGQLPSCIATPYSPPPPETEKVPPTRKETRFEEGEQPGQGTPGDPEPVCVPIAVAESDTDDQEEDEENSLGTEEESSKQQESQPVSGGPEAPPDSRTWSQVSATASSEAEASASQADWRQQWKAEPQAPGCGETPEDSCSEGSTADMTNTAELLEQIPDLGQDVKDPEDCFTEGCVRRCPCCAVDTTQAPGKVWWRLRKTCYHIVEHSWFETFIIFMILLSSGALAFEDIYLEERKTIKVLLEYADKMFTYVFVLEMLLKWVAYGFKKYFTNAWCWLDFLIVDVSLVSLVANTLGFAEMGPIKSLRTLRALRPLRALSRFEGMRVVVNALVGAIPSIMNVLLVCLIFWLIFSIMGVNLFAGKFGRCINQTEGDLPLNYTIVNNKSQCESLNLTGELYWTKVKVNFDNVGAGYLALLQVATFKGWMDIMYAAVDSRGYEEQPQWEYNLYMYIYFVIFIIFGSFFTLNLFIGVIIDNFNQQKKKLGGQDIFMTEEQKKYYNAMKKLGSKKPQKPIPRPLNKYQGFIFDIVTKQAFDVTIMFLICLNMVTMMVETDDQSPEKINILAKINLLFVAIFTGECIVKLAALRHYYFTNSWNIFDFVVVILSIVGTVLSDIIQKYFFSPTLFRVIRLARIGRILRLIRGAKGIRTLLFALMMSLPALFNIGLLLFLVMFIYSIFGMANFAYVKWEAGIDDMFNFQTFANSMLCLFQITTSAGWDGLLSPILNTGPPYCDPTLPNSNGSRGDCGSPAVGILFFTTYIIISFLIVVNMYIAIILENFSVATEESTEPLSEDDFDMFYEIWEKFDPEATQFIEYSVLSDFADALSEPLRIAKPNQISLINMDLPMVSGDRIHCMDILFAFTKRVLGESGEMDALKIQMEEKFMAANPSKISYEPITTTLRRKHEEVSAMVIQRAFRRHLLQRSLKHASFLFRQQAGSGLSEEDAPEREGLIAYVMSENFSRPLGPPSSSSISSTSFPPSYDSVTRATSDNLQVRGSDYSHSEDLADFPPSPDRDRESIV

Structure (SMILES)	inhibition at 1 µM [1, 4]	inhibition at 1 µM [1, 5]	other results
O=C1CN(Cc2ccccc2)C(=O)c2cc(-c3ccc(C(F)(F)F)cc3)ccc2N1 [Compound X-8, 4-benzyl-7-(4-(trifluoromethyl)phenyl)-3,4-dihydro-1H-benzo[e][1,4]diazepine-2,5-dione]	50%	50%	inhibition at 1 µM [2, 6]: 6%; inhibition at 1 µM [2, 7]: 10%
O=C1c2cc(-c3ccc(C(F)(F)F)cc3)ccc2OC[C@H]2CN(CC(F)F)CCN12 [II-22, (R)-2-(2,2-difluoroethyl)-8-(4-(trifluoromethyl)phenyl)-3,4,12,12a-tetrahydro-1H-benzo[f]pyrazino[2,1-c][1,4]oxazepin-6(2H)-one]	30%	30%	–
O=C1c2cc(-c3ccc(OC(F)(F)F)cc3)ccc2OCCN1Cc1ncccn1 [II-73, 4-(pyrimidin-2-ylmethyl)-7-(4-(trifluoromethoxy)phenyl)-3,4-dihydrobenzo[f][1,4]oxazepin-5(2H)-one]	42%	42%	IC50 ([3]; 10 Hz frequency): > 10000 nM; IC50 ([3]; frequency of 25 Hz): 1500 nM
O=C1c2cc(-c3ccc(C(F)(F)F)cc3)ccc2OC[C@H]2CN(CC(F)(F)F)CCN12 [II-83, (R)-2-(2,2,2-trifluoroethyl)-8-(4-(trifluoromethyl)phenyl)-3,4,12,12a-tetrahydro-1H-benzo[f]pyrazino[2,1-c][1,4]oxazepin-6(2H)-one]	31%	31%	–
O=C1c2cc(-c3ccc(Cl)cc3)ccc2OCCN1Cc1ncccn1 [II-88, 7-(4-chlorophenyl)-4-(pyrimidin-2-ylmethyl)-3,4-dihydrobenzo[f][1,4]oxazepin-5(2H)-one]	41%	41%	–
CC(C)(C)c1ccc(-c2ccc3c(c2)C(=O)N(Cc2ncccn2)CCO3)cc1 [II-98, 7-(4-tert-butylphenyl)-4-(pyrimidin-2-ylmethyl)-3,4-dihydrobenzo[f][1,4]oxazepin-5(2H)-one]	39%	39%	–
O=C1c2cc(-c3ccc(C(F)(F)F)cc3F)ccc2OCCN1Cc1ncccn1 [II-105, 7-(2-fluoro-4-(trifluoromethyl)phenyl)-4-(pyrimidin-2-ylmethyl)-3,4-dihydrobenzo[f][1,4]oxazepin-5(2H)-one]	45%	45%	peak INa TB ([2]; measured at 1 μM): 9%; peak INa UDB ([2]; measured at 1 μM): 11%; inhibition at 1 µM [2, 6]: 9%; inhibition at 1 µM [2, 7]: 11%
O=C1c2cc(-c3ccc(C(F)(F)F)cc3Cl)ccc2OCCN1Cc1ncccn1 [II-110, 7-(2-chloro-4-(trifluoromethyl)phenyl)-4-(pyrimidin-2-ylmethyl)-3,4-dihydrobenzo[f][1,4]oxazepin-5(2H)-one]	35%	35%	–
O=C1c2cc(-c3ccc(Cl)cc3F)ccc2OCCN1Cc1ncccn1 [II-117, 7-(4-chloro-2-fluorophenyl)-4-(pyrimidin-2-ylmethyl)-3,4-dihydrobenzo[f][1,4]oxazepin-5(2H)-one]	37%	37%	–
O=C1c2cc(-c3ccc(C(F)(F)F)cc3)ccc2OCCN1Cc1cn2ccccc2n1 [II-129, 4-(imidazo[1,2-a]pyridin-2-ylmethyl)-7-(4-(trifluoromethyl)phenyl)-3,4-dihydrobenzo[f][1,4]oxazepin-5(2H)-one]	33%	33%	–
O=C(c1ncccn1)N1CCOc2ccc(-c3ccc(OC(F)(F)F)cc3)cc2C1 [III-1, pyrimidin-2-yl(7-(4-(trifluoromethoxy)phenyl)-2,3-dihydrobenzo[f][1,4]oxazepin-4(5H)-yl)methanone]	33%	33%	–
O=C1c2cc(C#Cc3ccc(OC(F)(F)F)cc3)ccc2OCCN1Cc1ncccn1 [VIII-4, 4-(pyrimidin-2-ylmethyl)-7-((4-(trifluoromethoxy)phenyl)ethynyl)-3,4-dihydrobenzo[f][1,4]oxazepin-5(2H)-one]	61%	61%	inhibition at 1 µM [2, 6]: 12%; inhibition at 1 µM [2, 7]: 19%
O=C1c2cc(C#Cc3ccc(C(F)(F)F)cc3)ccc2OCCN1Cc1ncccn1 [VIII-6, 4-(pyrimidin-2-ylmethyl)-7-((4-(trifluoromethyl)phenyl)ethynyl)-3,4-dihydrobenzo[f][1,4]oxazepin-5(2H)-one]	38%	38%	–
